From article PMC9960827, “Cloning and Characterization of Trypanosoma congolense and T. vivax Nucleoside Transporters Reveal the Potential of P1-Type Carriers for the Discovery of Broad-Spectrum Nucleoside-Based Therapeutics against Animal African Trypanosomiasis” (International Journal of Molecular Sciences, 2023)
Values joined by “and” are separate entries in the source; they are usually repeats but may differ in a detail not shown here. Equal values may be shown once. Read-outs that look alike come from different tables or passages of the source. Marks after values point to notes of the source that are not given here.

Legend:
T. congolense 6C3 [1] = assay: microbe, parasite or virus in culture; format: cell-based, Trypanosoma congolense; details: for EC50: Trypanosoma congolense, diminazene resistant strain, resazurin, read-out: T. congolense 6C3 EC50; for T. congolense 6C3 RF: resistance factor = EC50 (test strain)/EC50(control strain)
Procedure: (§1) EC50 values were determined by plotting to an equation for a sigmoid curve with variable slope (GraphPad Prism 8). All values were the average of at least three independent determinations on different days.

TvxNT3 = TvxNT3 (Trypanosoma vivax, UniProt F9WV62); assay: cell-based; format: cell-based
Chain of TvxNT3 (F9WV62 entry or part of it): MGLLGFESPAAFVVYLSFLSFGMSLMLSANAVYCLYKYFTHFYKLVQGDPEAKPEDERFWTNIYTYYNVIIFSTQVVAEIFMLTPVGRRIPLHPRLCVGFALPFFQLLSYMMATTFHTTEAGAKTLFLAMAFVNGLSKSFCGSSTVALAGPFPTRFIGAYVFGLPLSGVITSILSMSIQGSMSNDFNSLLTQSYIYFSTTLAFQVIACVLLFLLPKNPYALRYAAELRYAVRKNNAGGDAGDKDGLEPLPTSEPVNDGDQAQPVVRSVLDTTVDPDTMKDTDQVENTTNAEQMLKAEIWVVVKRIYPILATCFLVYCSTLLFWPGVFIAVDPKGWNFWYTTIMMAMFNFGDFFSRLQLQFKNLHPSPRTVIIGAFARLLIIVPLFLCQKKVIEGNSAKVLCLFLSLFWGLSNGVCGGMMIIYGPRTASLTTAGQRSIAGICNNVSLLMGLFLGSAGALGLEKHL
Description: The information for the T. congolense adenosine transporter (TcoAT1) and four putative T. vivax nucleoside transporters was obtained in the TritrypDB (tritrypdb.org/tritrypdb) genome database. Primers were designed to flank each gene upstream of the 5′ end (forward) and downstream of the 3′ end (reverse) as described (primer sequences in Supplementary Table S2). Following amplification from the genomic DNA of T. congolense or T. vivax, DNA for each extracted gene was ligated into the pNUS-HcN expression vector doubly digested with NdeI using the NEBuilder kit according to the manufacturer’s instructions (New England Biolabs). Construct was transformed into competent E. coli cells, and ligation was confirmed by restriction enzyme digestion of isolated plasmid DNA followed by Sanger sequencing (Source BioScience, Nottingham, UK). Confirmed plasmids were then transfected into L. mexicana cell line in which both NT1 and NT2 were doubly knocked out (SUPKO) and derived from L. mexicana Cas9 [64] as described. Clones grown in medium containing 50 μg/mL neomycin (G418) were collected for further confirmation by PCR with genomic DNA using a forward primer of the transporter gene and a reverse primer of the plasmid.
(§2) Uptake assays using radiolabeled trypanocides and/or nucleosides were carried out as described previously. Briefly, parasite cultures were harvested, washed twice in assay buffer (33 mM HEPES, 98 mM NaCl, 4.6 mM KCl, 0.5 mM CaCl2, 0.07 mM MgSO4, 5.8 mM NaH3PO4, 0.03 mM MgCl2, 23 mM NaHCO3, 14 mM D-glucose, pH 7.3), then resuspended and adjusted to a density of 1 × 10^8 cells/mL in assay buffer. The radiolabeled permeant in the presence or absence of different concentrations of potential inhibitors reconstituted in 100 μL assay buffer was deposited on top of 250 μL oil mix in microcentrifuge tubes; 1 × 10^7 parasites in 100 μL assay buffer were added to the tube and incubated for a pre-determined interval. The reaction was stopped by the addition of 1 mL of a high concentration of ice-cold unlabeled substrate in assay buffer (‘stop solution’) and centrifugation, or by immediate centrifugation at […] as appropriate. The microcentrifuge tubes were flash-frozen, and the bottom of each tube containing the cell pellet was cut off and transferred to a scintillation vial. Cell pellets were lysed in 2% SDS, after which scintillation fluid (Scintlogic U, Lablogic) was added, followed by overnight incubation in the dark. Scintillation was measured in a 300SL (Hidex) scintillation counter (Hidex). All the assays were conducted in triplicate and analysis was carried out using Microsoft Excel and GraphPad Prism. All kinetic parameters were obtained on at least 3 separate occasions.
The dose-dependent uptake assay allowed for the affinity of nucleoside analogs to different nucleoside transporters to be determined by measuring the extent to which the analogs compete with and inhibit the uptake of radiolabel adenosine. This allowed for the determination of biochemical parameters such as Km and Vmax through the application of the Michaelis–Menten equation V0 = Vmax([substrate]/([substrate] + Km)). The 50% Inhibitory Concentration (IC50) of the purines and pyrimidines and their analogs was determined from non-linear regression to sigmoid curves with variable slope (Prism 8), and the IC50 of the inhibitor and the Km of the labeled permeant were then used to calculate the inhibition constant (Ki) of the analogs through the Cheng–Prusoff equation: Ki = IC50/(1 + (L/Km)), where L denotes the radiolabel concentration. The calculated Ki was in turn used to determine the Gibbs free energy (ΔG^0) of the inhibitor–transporter interaction using the equation: ΔG^0 = -RTln(Ki), where R represents the gas constant and T symbolizes the absolute temperature in Kelvin [104].

TcoAT1 [2] = format: cell-based, Trypanosoma congolense; details: for Ki: 0.05 µM [3H]-adenosine, 10 s, IC50 converted to Ki, read-out: Ki on the transport of [3H]-adenosine; for ΔG0: Gibbs free energy of binding, from Km or Ki
Outline: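 Transporter genes were expressed in an L. mexicana line lacking NT1 and NT2 (SUPKO), and 1 × 10^7 cells in HEPES/bicarbonate buffer pH 7.3 took up radiolabeled permeant through an oil layer, with or without inhibitor. Uptake was stopped with ice-cold unlabeled substrate or by centrifugation, and pellets were counted. IC50 against radiolabeled adenosine was converted to Ki by Cheng–Prusoff using the permeant Km.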

[3] = molecular target: T. congolense adenosine transporter; assay: [3H]-adenosine uptake and its inhibition in T. congolense IL3000 bloodstream forms; format: cell-based, Trypanosoma congolense; details: 0.05 µM [3H]-adenosine, 30 s; IC50 converted to Ki; read-out: Ki on the transport of [3H]-adenosine
Outline: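 Bloodstream-form T. congolense IL3000 (1 × 10^7 cells) in HEPES/bicarbonate buffer pH 7.3 took up [3H]-adenosine over a set interval, with or without inhibitor, ending by ice-cold unlabeled substrate stop or centrifugation through oil. Pellet radioactivity gave IC50 by sigmoid fit; Ki followed by Cheng–Prusoff using adenosine Km.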

T. vivax [4] = test system: T. vivax; design: method as in Mabille et al. [69]; details: added for comparison only; ref Mabille et al. [69]; cited from earlier work
L. mexicana SUPKO+TcoAT1 = assay: microbe, parasite or virus in culture; format: cell-based, Leishmania mexicana; details: for EC50: read-out: SUPKO+TcoAT1 EC50
Outline: (§3)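 Values are averages of no fewer than three independent experiments performed on different days, with EC50 derived in each case from a sigmoid dose-response equation with variable slope.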

L. mexicana SUPKO = assay: microbe, parasite or virus in culture; format: cell-based, Leishmania mexicana; details: for SUPKO RF (Cas9): Resistance Factor = EC50(SUPKO)/EC50(Cas9)
Outline: as §3

L. mexicana SUPKO+TvxNT3 = assay: microbe, parasite or virus in culture; format: cell-based, Leishmania mexicana; details: for EC50: read-out: SUPKO+TvxNT3 EC50
Outline: as §3

T. congolense IL3000 [5] = assay: Alamar Blue (resazurin) assay, T. congolense IL3000; format: cell-based, Trypanosoma congolense; details: Trypanosoma congolense, read-out: T. congolense IL3000 EC50
Procedure: as §1

T. brucei TbAT1-KO = details: cited from earlier work
[6] = molecular target: T. b. brucei P1 (TbP1/NT2); details: cited from earlier work
L. mexicana Cas9 = assay: Resazurin drug sensitivity assay, LmexCas9; format: cell-based, Leishmania mexicana; details: read-out: LmexCas9 EC50
Outline: as §3

TcoAT1 [7] = assay: Uptake of [3H]-pentamidine and [3H]-diminazene in SUPKO+TcoAT1 versus SUPKO; format: cell-based, Trypanosoma congolense; details: 25 nM [3H]-pentamidine or 50 nM [3H]-diminazene, SUPKO+TcoAT1 vs SUPKO
Procedure: as §2, with “All the assays were conducted in triplicate and analysis was carried out using Microsoft Excel and GraphPad Prism. All kinetic parameters were obtained on at least 3 separate occasions.” left out

T.b.b. B48 [8] = assay: Alamar Blue (resazurin) assay, T. b. brucei B48; format: cell-based, Trypanosoma brucei brucei; details: Trypanosoma brucei, read-out: T.b.b. B48 EC50
Procedure: as §1

T. equiperdum [9] = assay: Alamar Blue (resazurin) assay, T. equiperdum; format: cell-based, Trypanosoma equiperdum; details: Trypanosoma equiperdum, read-out: T. equiperdum EC50
Procedure: as §1

[10] = test system: human embryonic kidney (HEK) cells; assay: Resazurin toxicity assay on human embryonic kidney cells; format: cell-based; details: for SI T. congolense: selectivity index = EC50 (HEK cells)/EC50 (T. congolense); for SI T. equiperdum: selectivity index = EC50 (HEK cells)/EC50 (T. equiperdum); for SI T. evansi: selectivity index = EC50 (HEK cells)/EC50 (T. evansi)
Procedure: as §1

[11] = as above; format: cell-based; details: human
Procedure: as §1

T. evansi [12] = assay: Alamar Blue (resazurin) assay, T. evansi; format: cell-based, Trypanosoma evansi; details: Trypanosoma evansi, read-out: T. evansi EC50
Procedure: as §1

T. congolense IL3000 [13] = test system: T. congolense IL3000; design: method as in Hulpia et al. [38]; details: values marked *; ref Hulpia et al. [38]; cited from earlier work
T.b.b. B48 [14] = test system: T.b.b. B48; design: method as in Hulpia et al. [38]; details: compound marked *; ref Hulpia et al. [38]; cited from earlier work
T. congolense 6C3 [15] = test system: T. congolense 6C3; design: method as in Hulpia et al. [38]; details: values marked *; ref Hulpia et al. [38]; cited from earlier work
T. equiperdum [16] = test system: T. equiperdum; design: method as in Hulpia et al. [38]; details: compound marked *; ref Hulpia et al. [38]; cited from earlier work
T. evansi [17] = test system: T. evansi; design: method as in Hulpia et al. [38]; details: compound marked *; ref Hulpia et al. [38]; cited from earlier work
T. vivax [18] = assay: T. vivax EC50 (from Mabille et al.); format: cell-based, Trypanosoma vivax; details: from Table 8 data
[19] = Leishmania mexicana, read-out: SUPKO EC50, resazurin, promastigotes
[20] = Resistance Factor relative to SUPKO

SMILES	EC50 (T. congolense 6C3 [1])	T. congolense 6C3 RF (T. congolense 6C3 [1])	Ki (TcoAT1 [2])	ΔG0 (TcoAT1 [2])	EC50 (T. vivax [4])	EC50 (L. mexicana SUPKO+TcoAT1; Leishmania mexicana)	EC50 (L. mexicana SUPKO; [19])	SUPKO RF (Cas9) (L. mexicana SUPKO)	EC50 (L. mexicana SUPKO+TvxNT3; Leishmania mexicana)	EC50 (L. mexicana Cas9; Leishmania mexicana)	EC50 (T. congolense IL3000 [5])	EC50 (T.b.b. B48 [8])	SI T. congolense [10]	SI T. equiperdum [10]	SI T. evansi [10]	further results
Nc1ncnc2c1ncn2[C@@H]1O[C@H](CO)C[C@H]1O [Cordycepin, 3′-deoxyadenosine]	2.16 ± 0.44 µM	0.88	4.59 µM and 4.6 µM	-7.29 kcal/mol	0.12 ± 0.02 µM	> 100 µM	> 100 µM	>1.09	> 100 µM	91.6 ± 12.9 µM	–	–	–	–	–	δ(ΔG0) (TvxNT3; difference in ΔG0 relative to the parent purine (adenosine or inosine)): -1.07 kcal/mol; fold difference in affinity compared to adenosine (TcoAT1 [2]): 10 fold; δ(ΔG0) (TcoAT1 [2]; loss of Gibbs free energy of binding relative to the parent nucleoside): 1.42 kcal/mol; Ki [3]: 12 ± 2 µM; EC50 (T. congolense IL3000 [5]; BSF, resazurin): 2.46 ± 0.42 µM; resistance of the TbAT1-KO strain (T. brucei TbAT1-KO): 17 fold; Ki ([6]; T. b. brucei bloodstream forms, read-out: Tbb P1 Ki): 210 ± 48 µM; Tbb P1 ΔG0 [6]: -5.02 kcal/mol
N=C(N)c1ccc(/N=N/Nc2ccc(C(=N)N)cc2)cc1 [Diminazene, reference compound]	1.32 ± 0.43 µM	5.7 ^a	–	–	–	–	–	1.27	–	–	0.23 ± 0.04 µM	0.34 ± 0.13 µM	–	–	–	effect of the expression of TcoAT1 on the uptake of the trypanocide (TcoAT1 [7]): no effect
Nc1ncnc2c1c(Br)cn2[C@@H]1O[C@H](CO)C[C@H]1O [FH7429_u, 7-bromo-7-deaza-3′-deoxyadenosine]	0.00049 ± 9e-05 µM	0.71	259 ± 11 µM	-4.9 kcal/mol	0.018 ± 0.003 µM	27 ± 5.8 µM	> 250 µM	>3.6	42.9 ± 12 µM	27.3 ± 7 µM	0.00069 ± 7e-05 µM	0.0048 ± 0.0005 µM	3158	4271	2430	ΔG0 (TvxNT3; Gibbs free energy of interaction, from Km or Ki): -5.14 kcal/mol; SUPKO+TcoAT1 RF (SUPKO) (L. mexicana SUPKO+TcoAT1; [20]): >7.4; SUPKO+TvxNT3 RF (SUPKO) (L. mexicana SUPKO+TvxNT3; [20]): >2.33; EC50 (T. equiperdum [9]): 0.00051 ± 7e-05 µM; EC50 [11]: 2.18 ± 0.41 µM; EC50 (T. evansi [12]): 0.0009 ± 0.00022 µM
Nc1ncnc2c1c(-c1ccccn1)cn2[C@@H]1O[C@H](CO)[C@@H](O)[C@H]1O [TH1008]	–	0.33	–	–	12.9 ± 4.4 µM	–	–	>8.5	–	–	–	–	110	303	466	EC50 (L. mexicana SUPKO+TcoAT1; resazurin, promastigotes): > 100 µM; EC50 (L. mexicana SUPKO; resazurin, promastigotes, read-out: SUPKO EC50): > 100 µM; EC50 (L. mexicana SUPKO+TvxNT3; resazurin, promastigotes): > 100 µM; EC50 (T. congolense IL3000 [13]): 0.17 ± 0.05 µM; EC50 (T.b.b. B48 [14]): 0.39 ± 0.03 µM; EC50 (T. congolense 6C3 [15]): 0.056 ± 0.013 µM; EC50 ([10]; resazurin, 96 well plates, read-out: HEK EC50): 18.5 ± 1.5 µM; EC50 (T. equiperdum [16]): 0.061 ± 0.005 µM; EC50 (T. evansi [17]): 0.04 ± 0.005 µM; EC50 (L. mexicana Cas9; resazurin, promastigotes): 11.7 ± 0.5 µM; fold higher EC50 against T. vivax compared to T. congolense (T. vivax [18]): 10–165 fold
